This note sets out measurements from patent publication US20240415819A1, “MACROCYCLIC COMPOUNDS AS PROTEASOME SUBUNIT BETA TYPE-5 INHIBITORS” (Lead Discovery Center GmbH, priority 2021, published 2024).

Where only a bound is given, the exact number is not on record here.

The subject of assay [1] is A549 (human lung carcinoma cell line). In words: Glo assay of A549 cells (Table 3; ProteasomeGlo plating scheme). Type of assay: cell-based. As to conditions: Homo sapiens; A549 cells; read-out: PGLo A549. The procedure, abridged:
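Cells plated in 384 wells; compound, DMSO, staurosporine transferred by ECHO; 105 min, 37° C., 5% CO2; Proteasome-Glo (Suc-LLVY-Glo) reagent added; dark 10-15 min; luminescence; IC50 nM.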

The target in assay [2] is T1, β5 subunit of the human constitutive proteasome (CPS) (Homo sapiens, UniProt P28074).
T1 construct: purchased Boston Biochem E-360
In words: β5 inhibition assay, human constitutive proteasome (Suc-LLVY-AMC). In kind it is biochemical. As to conditions: IC50 class, Suc-LLVY-AMC substrate. The procedure:
The enzymatic activity of the β5 subunit of the human constitutive proteasome (CPS) is analyzed. In another assay, which differs from the assay of the human constitutive proteasome only in using the human immunoproteasome (IPS) the enzymatic activity of the β5 subunit of the human immunoproteasome (IPS) is analyzed. […] Inhibition is indicated as IC50 [nM] (“-”=not measured).

Assay [3] relates to hPMBC. Briefly: Chymotrypsin-like ProteasomeGlo assay in hPBMC. In kind it is cell-based. Particulars: Homo sapiens; read-out: Pglo hPBMC. The procedure, abridged: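 B cells isolated from human PBMC (buffy coats, density gradient, magnetic isolation). Cells treated with compound for 105 min at 37 °C, with staurosporine and DMSO included. Chymotrypsin-like proteasome activity read by luminescence with Suc-LLVY-Glo substrate to derive IC50.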

As to `Cc1ccc2cc1CNC(=O)[C@H](CCc1ccccc1)NC(=O)[C@@H](NC(=O)Cc1nc(-c3ccncc3)n[nH]1)CC(=O)N1CCCC(CCO2)C1` (stereo partly drawn) [Compound 329, N-((9S,12S)-5^4-methyl-8,11,14-trioxo-9-phenethyl-4-oxa-7,10-diaza-1(3,1)-piperidina-5(1,3)-benzenacyclotetradecaphane-12-yl)-2-(3-(pyridin-4-yl)-1H-1,2,4-triazol-5-yl)acetamide], the IC50 is 100 to 500 nM in assay [1], < 100 nM in assay [2] and 100 to 500 nM in assay [3].
For the compound `Cc1n[nH]c(CC(=O)N[C@H]2CC(=O)N3CCCC(CCOc4ccc(C)c(c4)CNC(=O)[C@H](CCc4ccccc4)NC2=O)C3)n1` (stereo partly drawn) [Compound 332, 2-(3-methyl-1H-1,2,4-triazol-5-yl)-N-((9S,12S)-5^4-methyl-8,11,14-trioxo-9-phenethyl-4-oxa-7,10-diaza-1(3,1)-piperidina-5(1,3)-benzenacyclotetradecaphane-12-yl)acetamide], the IC50 in assay [1], in assay [2] and in assay [3] was < 100 nM throughout.
For `Cc1ccc2cc1CNC(=O)[C@H](CCc1ccccc1)NC(=O)[C@@H](NC(=O)Cc1ccccc1F)CC(=O)N1CCCC(CCO2)C1` (stereo partly drawn) [Compound 333, 2-(2-fluorophenyl)-N-((9S,12S)-5^4-methyl-8,11,14-trioxo-9-phenethyl-4-oxa-7,10-diaza-1(3,1)-piperidina-5(1,3)-benzenacyclotetradecaphane-12-yl)acetamide], the IC50 in assay [1], in assay [2] and in assay [3] was < 100 nM throughout.
Consider `Cc1ccc2cc1CNC(=O)[C@H](CCc1ccccc1)NC(=O)[C@@H](NC(=O)CC1=NN(c3ccccc3)C(=O)C1)CC(=O)N1CCCC(CCO2)C1` (stereo partly drawn) [Compound 334, N-((9S,12S)-5^4-methyl-8,11,14-trioxo-9-phenethyl-4-oxa-7,10-diaza-1(3,1)-piperidina-5(1,3)-benzenacyclotetradecaphane-12-yl)-2-(5-oxo-1-phenyl-4,5-dihydro-1H-pyrazol-3-yl)acetamide], for which the figures for the IC50 in assay [1], in assay [2] and in assay [3] were 100 to 500 nM, < 100 nM and 100 to 500 nM, respectively.
On to `Cc1ccc2cc1CNC(=O)[C@H](CCc1ccccc1)NC(=O)[C@@H](NC(=O)Cc1cc(O)on1)CC(=O)N1CCCC(CCO2)C1` (stereo partly drawn) [Compound 335, 2-(5-hydroxyisoxazol-3-yl)-N-((9S,12S)-5^4-methyl-8,11,14-trioxo-9-phenethyl-4-oxa-7,10-diaza-1(3,1)-piperidina-5(1,3)-benzenacyclotetradecaphane-12-yl)acetamide], for which the IC50 in assay [1], in assay [2] and in assay [3] was < 100 nM in each case.
In the case of `Cc1ccc2cc1CNC(=O)C(CCc1ccncc1)NC(=O)[C@@H](NC(=O)OCc1ccccc1)CC(=O)N1CCCC(CCO2)C1` (stereo partly drawn) [Compound 336, benzyl ((12S)-5^4-methyl-8,11,14-trioxo-9-(2-(pyridin-4-yl)ethyl)-4-oxa-7,10-diaza-1(3,1)-piperidina-5(1,3)-benzenacyclotetradecaphane-12-yl)carbamate], the IC50 in assay [1], in assay [2] and in assay [3] was < 100 nM throughout.
For `Cc1ccc2cc1CNC(=O)[C@H](CCc1ccccc1)NC(=O)[C@@H](NC(=O)OCc1ccccc1)CC(=O)N1CC(C)CC(CCO2)C1` (stereo partly drawn) [Compound 337, benzyl ((9S,12S)-1^5,5^4-dimethyl-8,11,14-trioxo-9-phenethyl-4-oxa-7,10-diaza-1(3,1)-piperidina-5(1,3)-benzenacyclotetradecaphane-12-yl)carbamate], the IC50 was 100 to 500 nM in assay [1], < 100 nM in assay [2] and < 100 nM in assay [3].
In the case of `CC(=O)N[C@H]1CC(=O)N2CCCC(CCOc3ccc(C)c(c3)CNC(=O)C(CCC3CCN(C(C)=O)CC3)NC1=O)C2` (stereo partly drawn) [Compound 338, N-((12S)-9-(2-(1-acetylpiperidin-4-yl)ethyl)-5^4-methyl-8,11,14-trioxo-4-oxa-7,10-diaza-1(3,1)-piperidina-5(1,3)-benzenacyclotetradecaphane-12-yl)acetamide], the IC50 in assay [1] is 100 to 500 nM; in assay [2], < 100 nM; in assay [3], < 100 nM.
For the compound `Cc1ccc2cc1CNC(=O)[C@H](CCc1ccccc1)NC(=O)[C@@H](NC(=O)c1ccc3cc(N)ccc3c1)CC(=O)N1CCCC(CCO2)C1` (stereo partly drawn) [Compound 339, 6-amino-N-((9S,12S)-5^4-methyl-8,11,14-trioxo-9-phenethyl-4-oxa-7,10-diaza-1(3,1)-piperidina-5(1,3)-benzenacyclotetradecaphane-12-yl)-2-naphthamide], the IC50 in assay [1] was 100 to 500 nM; in assay [2], < 100 nM; in assay [3] it was 100 to 500 nM.
For the compound `Cc1ccc2cc1CNC(=O)[C@H](CCc1ccccc1)NC(=O)[C@@H](NC(=O)Cc1nnc(N)[nH]1)CC(=O)N1CCCC(CCO2)C1` (stereo partly drawn) [Compound 340, 2-(5-amino-1H-1,2,4-triazol-3-yl)-N-((9S,12S)-5^4-methyl-8,11,14-trioxo-9-phenethyl-4-oxa-7,10-diaza-1(3,1)-piperidina-5(1,3)-benzenacyclotetradecaphane-12-yl)acetamide], the IC50 in assay [1], in assay [2] and in assay [3] was < 100 nM in each case.
As for `CC(=O)c1ccc(CC(=O)N[C@H]2CC(=O)N3CCCC(CCOc4ccc(C)c(c4)CNC(=O)[C@H](CCc4ccccc4)NC2=O)C3)cc1` (stereo partly drawn) [Compound 341, 2-(4-acetylphenyl)-N-((9S,12S)-54-methyl-8,11,14-trioxo-9-phenethyl-4-oxa-7,10-diaza-1(3,1)-piperidina-5(1,3)-benzenacyclotetradecaphane-12-yl)acetamide], the IC50 in assay [1], in assay [2] and in assay [3] was < 100 nM throughout.
On to `Cc1ccc2cc1CNC(=O)C(CCc1ccncc1)NC(=O)[C@@H](NC(=O)Cc1nnc(N)s1)CC(=O)N1CCCC(CCO2)C1` (stereo partly drawn) [Compound 342, 2-(5-amino-1,3,4-thiadiazol-2-yl)-N-((12S)-5^4-methyl-8,11,14-trioxo-9-(2-(pyridin-4-yl)ethyl)-4-oxa-7,10-diaza-1(3,1)-piperidina-5(1,3)-benzenacyclotetradecaphane-12-yl)acetamide], for which the IC50 in assay [1], in assay [2] and in assay [3] was < 100 nM each time.
As for `Cc1ccc2cc1CNC(=O)C(CCc1ccncc1)NC(=O)[C@@H](NC(=O)C1(c3ccc(N)cc3)CC1)CC(=O)N1CCCC(CCO2)C1` (stereo partly drawn) [Compound 343, 1-(4-aminophenyl)-N-((12S)-5^4-methyl-8,11,14-trioxo-9-(2-(pyridin-4-yl)ethyl)-4-oxa-7,10-diaza-1(3,1)-piperidina-5(1,3)-benzenacyclotetradecaphane-12-yl)cyclopropane-1-carboxamide], the IC50 in assay [1], in assay [2] and in assay [3] was < 100 nM in each case.
For `Cc1ccc2cc1CNC(=O)C(CCc1ccncc1)NC(=O)[C@@H](NC(=O)Cc1ccc(N)cc1F)CC(=O)N1CCCC(CCO2)C1` (stereo partly drawn) [Compound 344, 2-(4-amino-2-fluorophenyl)-N-((12S)-5^4-methyl-8,11,14-trioxo-9-(2-(pyridin-4-yl)ethyl)-4-oxa-7,10-diaza-1(3,1)-piperidina-5(1,3)-benzenacyclotetradecaphane-12-yl)acetamide], the IC50 in assay [1], in assay [2] and in assay [3] was < 100 nM in each case.
As to `CCOC(C(=O)N[C@H]1CC(=O)N2CCCC(CCOc3ccc(C)c(c3)CNC(=O)[C@H](CCc3ccccc3)NC1=O)C2)c1ccc(N)cc1` (stereo partly drawn) [Compound 345, 2-(4-aminophenyl)-2-ethoxy-N-((9S,12S)-5^4-methyl-8,11,14-trioxo-9-phenethyl-4-oxa-7,10-diaza-1(3,1)-piperidina-5(1,3)-benzenacyclotetradecaphane-12-yl)acetamide], the IC50 is 100 to 500 nM in assay [1], < 100 nM in assay [2] and < 100 nM in assay [3].
For `Cc1ccc2cc1CNC(=O)[C@H](CCc1ccccc1)NC(=O)[C@@H](NC(=O)OCc1ccccc1)CCCCC(=O)NCCCCO2` [Compound 347, benzyl ((13S,16S)-1^4-methyl-8,14,17-trioxo-16-phenethyl-2-oxa-7,15,18-triaza-1(1,3)-benzenacyclononadecaphane-13-yl)carbamate], the IC50 in assay [1] is 100 to 500 nM; in assay [2], < 100 nM; in assay [3], < 100 nM.
For `Cc1ccc2cc1CNC(=O)[C@@H](CCc1ccccc1)NC(=O)[C@H](NC(=O)C(C)(C)CS)CC(=O)N1CCCC(CCO2)C1` (stereo partly drawn) [Compound 348, 3-mercapto-2,2-dimethyl-N-((9S,12S)-5^4-methyl-8,11,14-trioxo-9-phenethyl-4-oxa-7,10-diaza-1(3,1)-piperidina-5(1,3)-benzenacyclotetradecaphane-12-yl)propanamide], the IC50 in assay [1], in assay [2] and in assay [3] was < 100 nM in each case.
Regarding `Cc1ccc2cc1CNC(=O)[C@H](CCc1ccccc1)NC(=O)[C@@H](NC(=O)OCc1ccccc1)CCC(=O)N1CCC(CO2)C1` (stereo partly drawn) [Compound 349, benzyl ((8S,11S)-4^4-methyl-7,10,14-trioxo-8-phenethyl-3-oxa-6,9-diaza-1(3,1)-pyrrolidina-4(1,3)-benzenacyclotetradecaphane-11-yl)carbamate], the IC50 in assay [1] is 100 to 500 nM; in assay [2] it was < 100 nM; in assay [3] it was < 100 nM.
